Read-outs that look alike come from different tables or passages of the source.
Assays:
[1] = system: patients with COVID-19 requiring sedation and invasive mechanical ventilation; settings: for Hospital length of stay / ICU Free days at day 60 / ICU time / Intubation time / Ventilator free days at day 60: mean
Source text: (§1) Data was collected from electronic medical records (EMRs) of Rush University hospitals: Rush University Medical Center; Rush Copley Medical Center; and Rush Oak Park Hospital. Deidentified data was collected from the EMRs by the Rush Bioinformatics and Biostatistics Core. This retrospective cohort study received expedited approval by the Institutional Review Board at Rush University Medical Center.
We identified patients that were hospitalized at Rush University from Mar. 1, 2020 to Jul. 30, 2020. […] Corticosteroids were not excluded because at the time of the study there were no standard practices or guidelines for using this medication in the study population at Rush. Clinical outcomes were assessed from the time of admission to the time of discharge.
(§2) For continuous variables, independent samples t-tests were performed. For each continuous variable, a Levene's test for equality of variances was performed. With significance on Levene's test for heterogeneity of variances, a Mann-Whitney U test was performed. […] Categorical variables were assessed with a Pearson's chi-squared test. If any expected count in a 2×2 table was less than 5, a Fisher's exact test was performed. […] We used p≤0.05 as the threshold for significance.

[2] = system: patients with COVID-19 requiring sedation and invasive mechanical ventilation
Source text: as §1
We identified patients that were hospitalized at Rush University from Mar. […] Corticosteroids were not excluded because at the time of the study there were no standard practices or guidelines for using this medication in the study population at Rush. Clinical outcomes were assessed from the time of admission to the time of discharge.
We evaluated patients in each group for age, gender, race, ethnicity, and comorbidities at admission. […] Directly prior to intubation, a sequential organ failure assessment score (SOFA) was calculated for each group, and a PaO2/FiO2 (mmHg) was separately assessed.
Our primary tool to assess 28-day mortality was multivariable Cox proportional hazards regression.
as §2
Simple imputation using the mean of the immediate preceding and succeeding most severe value over 24 hours was used for missing values for Pao2/Flo2 and mSOFA scores within the 24 hour time period of interest (intubation) (11-13). A complete case analysis was performed (14). All analyses were performed using SPSS version 27.

[3] = 90% or greater vs less than 90%
[4] = time on dexmedetomidine/time on intubation 90% or greater (n=30)
[5] = time on dexmedetomidine/time on intubation less than 90% (n=122)

SMILES: Cc1cccc([C@H](C)c2cnc[nH]2)c1C [DEX, dexmedetomidine]
- Hospital length of stay ([1]; 90% or greater (n=30)): 24.37 days
- ICU Free days at day 60 ([1]; 90% or greater (n=30)): 36.45
- ICU time ([1]; 90% or greater (n=30)): 18.76 days
- Intubation time ([1]; 90% or greater (n=30)): 9.61 days
- Ventilator free days at day 60 ([1]; 90% or greater (n=30)): 43.63
- Hospital length of stay, Difference Between Groups [1, 3]: -1.38 days
- ICU Free days at day 60, Difference Between Groups [1, 3]: 11.48
- ICU time, Difference Between Groups [1, 3]: -1.83 days
- Intubation time, Difference Between Groups [1, 3]: -5.92 days
- Ventilator free days at day 60, Difference Between Groups [1, 3]: 15.55
- In-hospital mortality, Risk Ratio ([1]; 90% or greater vs less than 90% of intubation time on dexmedetomidine): 0.277
- Hospital length of stay ([1]; less than 90% (n=122)): 25.75 days
- ICU Free days at day 60 ([1]; less than 90% (n=122)): 24.98
- ICU time ([1]; less than 90% (n=122)): 20.59 days
- Intubation time ([1]; less than 90% (n=122)): 15.53 days
- Ventilator free days at day 60 ([1]; less than 90% (n=122)): 28.08
- In-hospital mortality (%) [1, 4]: (10.0%)
- In-hospital mortality (count) [1, 4]: 3/30
- In-hospital mortality (%) [1, 5]: (36.1%)
- In-hospital mortality (count) [1, 5]: 44/122
- relative risk reduction (28-day mortality) ([2]; DEX cohort vs cohort that did not receive DEX, 95% CI 42.4-69.6%): 58.2%
- 28-day mortality ([2]; from start time of intubation, cohort receiving DEX (n=152)): 27.0%
- landmark analysis of 28-day mortality by start time of DEX ([2]; time cut-offs days 1-22 from intubation, earlier DEX use): lower aHRs and increased significance
- 28-day mortality aHR ([2]; univariable Cox regression with DEX use as time-varying covariate, (95% CI)): 0.56

— patent US20230404979A1, “ALPHA-2 […] RECEPTOR AGONISTS TO REDUCE MORTALITY AND IMPROVE OUTCOMES IN VIRAL R[…]” (RUSH UNIVERSITY MEDICAL CENTER, priority 2020, published 2023)
